Measurements: patent US20230167073A1 (Teijin Pharma Limited, priority 2020, published 2023)
Where two headings read alike, the source gives them in different places.

Target: T1, Human TRPC6 (Homo sapiens, UniProt Q9Y210)
T1 construct: expressed in transfected cells
T1 sequence (Q9Y210 1-931): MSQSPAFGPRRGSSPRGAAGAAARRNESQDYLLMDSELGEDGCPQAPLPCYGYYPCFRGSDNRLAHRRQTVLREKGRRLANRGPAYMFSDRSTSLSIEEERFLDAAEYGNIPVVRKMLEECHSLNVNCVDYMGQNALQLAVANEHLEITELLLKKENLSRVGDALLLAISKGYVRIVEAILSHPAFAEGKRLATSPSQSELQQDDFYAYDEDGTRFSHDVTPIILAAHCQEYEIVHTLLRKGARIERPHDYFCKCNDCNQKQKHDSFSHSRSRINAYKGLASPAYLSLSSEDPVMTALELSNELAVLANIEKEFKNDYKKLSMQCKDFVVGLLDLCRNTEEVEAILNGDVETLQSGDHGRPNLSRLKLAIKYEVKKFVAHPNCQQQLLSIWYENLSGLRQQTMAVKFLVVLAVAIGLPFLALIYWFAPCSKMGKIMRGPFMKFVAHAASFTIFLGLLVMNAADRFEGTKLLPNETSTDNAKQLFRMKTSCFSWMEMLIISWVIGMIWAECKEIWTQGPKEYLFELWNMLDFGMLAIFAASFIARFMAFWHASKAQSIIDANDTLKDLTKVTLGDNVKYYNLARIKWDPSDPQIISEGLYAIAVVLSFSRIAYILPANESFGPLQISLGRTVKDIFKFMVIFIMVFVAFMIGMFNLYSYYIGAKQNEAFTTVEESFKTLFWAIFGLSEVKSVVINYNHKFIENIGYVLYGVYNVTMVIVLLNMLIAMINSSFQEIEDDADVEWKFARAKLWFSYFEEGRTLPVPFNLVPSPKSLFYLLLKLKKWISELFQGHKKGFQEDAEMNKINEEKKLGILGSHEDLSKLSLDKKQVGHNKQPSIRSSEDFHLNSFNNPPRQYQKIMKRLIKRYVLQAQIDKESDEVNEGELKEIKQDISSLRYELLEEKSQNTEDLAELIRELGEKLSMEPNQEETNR
Assay: Evaluation of TRPC6 channel inhibitory activity (1), FLIPR Calcium 5 Assay Kit, OAG stimulation (Compound Nos. 1-1293)
Type: cell-based
How it was run: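 Stable human TRPC6 line; fluorescent Ca2+ dye loading, then 20 min compound exposure before 30 μM OAG trigger. Peak-minus-baseline signal converted to % inhibition against untreated and unstimulated wells; potency given as pIC50 band.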

[1] = Human TRPC6 stably-expressing cells, OAG 30 μM, FLIPR Calcium 5 Assay Kit, read-out: Inhibitory activity (pIC50 class) (converted)

IC50 [1]	SMILES	IC50
10 to 1000 nM	CCN(CC(F)F)c1cc(Oc2cc(F)ccc2-c2ncc(CN)cn2)n(C)n1 [compound 994, 5-[2-[5-(aminomethyl)pyrimidin-2-yl]-5-fluorophenoxy]-N-(2,2-difluoroethyl)-N-ethyl-1 methylpyrazole-3-amine]	
10 to 1000 nM	Cc1cc(C(C)(C)C)nn1Cc1cc(C#N)ccc1-c1ccc(CCN)cn1 [compound 1159, 4-[5-(2-aminoethyl)pyridin-2-yl]-3-[(3-tert-butyl-5-methylpyrazol-1-yl)methyl]benzonitrile]	
10 to 1000 nM	N#Cc1ccc(-c2ncc(CCN)cn2)c(C(=O)c2nnc(N3CCOCC3)o2)c1 [compound 1092, 4-[5-(2-aminoethyl)pyrimidin-2-yl]-3-(5-morpholin-4-yl-1,3,4-oxadiazole-2-carbonyl)benzonitrile]	
10 to 1000 nM	Cc1nc(OCC(F)(F)F)cc(Oc2cc(C#N)ccc2-c2ncc(CCN)cn2)n1 [compound 884, 4-[5-(2-aminoethyl)pyrimidin-2-yl]-3-[2-methyl-6-(2,2,2-trifluoroethoxy)pyrimidin-4-yl]oxybenzonitrile]	
< 10 nM	Cn1nc(C(F)(F)F)cc1Oc1cc(C#N)ccc1-c1ncc([C@H](F)CN)cn1 [compound 903, 4-[5-[(1S)-2-amino-1-fluoroethyl]pyrimidin-2-yl]-3-[2-methyl-5-(trifluoromethyl)pyrazol-3-yl]oxybenzonitrile]	
> 1000 nM	Cc1nn(C2CCCCC2)cc1Oc1cc(C#N)ccc1-c1ncc(CN)cn1 [compound 865, 4-[5-(aminomethyl)pyrimidin-2-yl]-3-(1-cyclohexyl-3-methylpyrazol-4-yl)oxybenzonitrile]	
< 10 nM	N#Cc1ccc(-c2ncc(CCN)cn2)c(C(=O)c2cnn(CC3CC3)c2)c1 [compound 1046, 4-[5-(2-aminoethyl)pyrimidin-2-yl]-3-[1-(cyclopropylmethyl)pyrazole-4-carbonyl]benzonitrile]	
10 to 1000 nM	CC(C)Nc1cc(Sc2cc(C#N)ccc2-c2ncc(CN)cn2)cnn1 [compound 1272, 4-[5-(aminomethyl)pyrimidin-2-yl]-3-[6-(propan-2-ylamino)pyridazin-4-yl]sulfanylbenzonitrile]	
< 10 nM	Cn1nc(N2CCCC2)cc1Cc1cc(C#N)ccc1-c1ncc(CCN)cn1 [compound 1211, 4-[5-(2-aminoethyl)pyrimidin-2-yl]-3-[(2-methyl-5-pyrrolidin-1-ylpyrazol-3-yl)methyl]benzonitrile]	
> 1000 nM	Cc1nc(CN2CCC(C(F)(F)F)CC2)cn1Cc1cc(C#N)ccc1-c1ncc(CCN)cn1 [compound 1180, 4-[5-(2-aminoethyl)pyrimidin-2-yl]-3-[[2-methyl-4-[[4-(trifluoromethyl)piperidin-1-yl]methyl]imidazol-1-yl]methyl]benzonitrile]	
< 10 nM	N#Cc1ccc(-c2ccc(CCN)cn2)c(C(=O)c2sc(N3CCOCC3)nc2C(F)(F)F)c1 [compound 1077, 4-[5-(2-aminoethyl)pyridin-2-yl]-3-[2-morpholin-4-yl-4-(trifluoromethyl)-1,3-thiazole-5-carbonyl]benzonitrile]	

Further lines, the compound ahead of its results:

SMILES	IC50 [1]	IC50
CCN(CC)c1cc(Oc2cc(C#N)ccc2-c2ccc(CCN)cn2)n(C)n1 [compound 754, 4-[5-(2-aminoethyl)pyridin-2-yl]-3-[5-(diethylamino)-2-methylpyrazol-3-yl]oxybenzonitrile]	< 10 nM	
N#Cc1ccc(-c2ccc(CCN)nc2)c(Oc2cc(N3CCOCC3)cnn2)c1 [Compound 80, 4-[6-(2-aminoethyl)pyridin-3-yl]-3-(5-morpholin-4-ylpyridazin-3-yl)oxybenzonitrile]	> 1000 nM	
CC(C)(C)COc1cc(Oc2cc(C#N)ccc2-c2ccc(CCN)cc2)cnn1 [Compound 108, 4-[4-(2-aminoethyl)phenyl]-3-[6-(2,2-dimethylpropoxy)pyridazin-4-yl]oxybenzonitrile]	10 to 1000 nM	
CC(C)(C)n1nc(C2CC2)cc1Oc1cc(C#N)ccc1-c1ncc(CCN)cn1 [compound 369, 4-[5-(2-aminoethyl)pyrimidin-2-yl]-3-(2-tert-butyl-5-cyclopropylpyrazol-3-yl)oxybenzonitrile]	10 to 1000 nM	
Cc1nc(Nc2cc(C#N)ccc2-c2ccc3c(c2)COC32CNC2)cc(N2CCOCC2)n1 [Compound 3, 3-[(2-methyl-6-morpholin-4-ylpyrimidin-4-yl)amino]-4-spiro[3H-2-benzofuran-1,3′-azetidin]-5-ylbenzonitrile]	10 to 1000 nM	
Cc1nc(Oc2cc(C#N)ccc2-c2ncc(CCN)cn2)cc(N2C3CCC2CC3)n1 [compound 671, 4-[5-(2-aminoethyl)pyrimidin-2-yl]-3-[6-(7-azabicyclo[2.2.1]heptan-7-yl)-2-methylpyrimidin-4-yl]oxybenzonitrile]		< 10 nM
N#Cc1ccc(-c2ccc(CCN)cn2)c(Oc2cnnc(N3CCOCC3)c2)c1 [Compound 89, 4-[5-(2-aminoethyl)pyridin-2-yl]-3-(6-morpholin-4-ylpyridazin-4-yl)oxybenzonitrile]	> 1000 nM	
Cc1nc(Oc2cc(C#N)ccc2-c2ccc3c(c2)C(O)C(N)CC3)cc(-c2ccccc2)n1 (stereo not drawn) [Compound 191, 4-(7-amino-8-hydroxy-5,6,7,8-tetrahydronaphthalen-2-yl)-3-(2-methyl-6-phenylpyrimidin-4-yl)oxybenzonitrile]	> 1000 nM	
Cn1nc(C2CCC2)cc1Oc1cc(C#N)ccc1-c1ncc(C(O)CN)s1 (stereo not drawn) [Compound 238, 4-[5-(2-amino-1-hydroxyethyl)-1,3-thiazol-2-yl]-3-(5-cyclobutyl-2-methylpyrazol-3-yl)oxybenzonitrile]	< 10 nM	
N#Cc1ccc(-c2ncc(C(O)CN)s2)c(Oc2cnnc(-c3ccccc3)c2)c1 (stereo not drawn) [Compound 246, 4-[5-(2-amino-1-hydroxyethyl)-1,3-thiazol-2-yl]-3-(6-phenylpyridazin-4-yl)oxybenzonitrile]	< 10 nM	
Cn1nc(C2CC2)cc1Oc1cc(C#N)ccc1-c1ccc(C(N)C(N)=O)cn1 (stereo not drawn) [compound 504, 2-amino-2-[6-[4-cyano-2-(5-cyclopropyl-2-methylpyrazol-3-yl)oxyphenyl]pyridin-3-yl]acetamide]	> 1000 nM	
Cc1cc(Oc2cc(C#N)ccc2-c2ccc([C@H](O)CN)cn2)cc(-c2ncc(C)s2)n1 [compound 605, 4-[5-[(1S)-2-amino-1-hydroxyethyl]pyridin-2-yl]-3-[2-methyl-6-(5-methyl-1,3-thiazol-2-yl)pyridin-4-yl]oxybenzonitrile]	10 to 1000 nM	
CN(CCF)c1cc(Oc2cc(C#N)ccc2-c2ncc(CCN)cn2)n(C)n1 [compound 822, 4-[5-(2-aminoethyl)pyrimidin-2-yl]-3-[5-[2-fluoroethyl(methyl)amino]-2-methylpyrazol-3-yl]oxybenzonitrile]	< 10 nM	
Cn1nc(C2CCOCC2)cc1Oc1cc(C#N)ccc1-c1ncc(CN)cn1 [compound 441, 4-[5-(aminomethyl)pyrimidin-2-yl]-3-[2-methyl-5-(oxan-4-yl)pyrazol-3-yl]oxybenzonitrile]	< 10 nM	
Cc1nc(Oc2cc(C#N)ccc2-n2ccc(C(O)CN)n2)cc(N2CCOCC2)n1 (stereo not drawn) [Compound 144, 4-[3-(2-amino-1-hydroxyethyl)pyrazol-1-yl]-3-(2-methyl-6-morpholin-4-ylpyrimidin-4-yl)oxybenzonitrile]	10 to 1000 nM	
Cc1nn(CC(F)(F)F)cc1Oc1cc(C#N)ccc1-c1ncc(CCN)cn1 [compound 834, 4-[5-(2-aminoethyl)pyrimidin-2-yl]-3-[3-methyl-1-(2,2,2-trifluoroethyl)pyrazol-4-yl]oxybenzonitrile]	< 10 nM	
